Key:
[1] = tested on: men and women with average to mildly elevated total and LDL-cholesterol, below average HDL-cholesterol and no clinical evidence of atherosclerotic …; assay: AFCAPS/TexCAPS double-blind, randomized, placebo controlled primary prevention trial of lovastatin; format: in vivo, human
Text: The following is a description of a clinical trial referred to herein as “AFCAPS/TexCAPS” or “AFCAPS” employing lovastatin to exemplify the methods of the present invention.
AFCAPS/TexCAPS was a primary prevention endpoint event trial which: (1) included unstable angina as a primary endpoint, reflecting the trend to treat coronary heart disease aggressively before a myocardial infarction has occurred; 2) involved aggressive pharmacologic intervention, with titration, to target an LDL-cholesterol goal lower than current National Cholesterol Education Panel guidelines for primary prevention; and 3) included a cohort comprised of men and women with a broad age range encompassing the elderly and included persons with a lipid profile consisting of average total and LDL-cholesterol, below average HDL-cholesterol levels; total cholesterol/HDL-cholesterol ratio greater than or equal to 4.5, with a baseline mean ratio of 6.1 for the cohort; and LDL/HDL-cholesterol ratio greater than or equal to 4.
Entrance inclusion criteria were LDL-cholesterol 130-190 mg/dl (or <130 if the ratio of total cholesterol/HDL is >6) and HDL-cholesterol ≦45 mg/dl for men and ≦47 mg/dl for women.
AFCAPS/TexCAPS was a double-blind, randomized, placebo controlled trial designed and powered to investigate whether chronic lipid-lowering, with lovastatin will decrease the rate of first acute major coronary events (e.g. sudden cardiac death, fatal and non-fatal myocardial infarction and unstable angina) compared to intervention with diet alone during at least 4.5 years of follow-up in a cohort without clinical evidence of atherosclerotic cardiovascular disease and with average to mildly elevated total cholesterol, average to midly elevated LDL-cholesterol, and below average HDL-cholesterol. Secondary objectives included whether chronic treatment with lovastatin, compared to placebo, would decrease cardiovascular morbidity and mortality across the spectrum of clinical events, by measuring the rates of: (1) fatal and non-fatal coronary revascularization procedures (2) unstable angina, (3) fatal and non-fatal myocardial infarction, (4) fatal and non-fatal cardiovascular events, (5) fatal and non-fatal coronary events.
All participants underwent dietitian taught group instruction in the American Heart Association Step 1 diet commencing at least 12 weeks prior to randomization (Week -12) and reinforced at Weeks-4 and -2. Baseline observations included collection of medical history, health habit and demographic data, physical exam, eye exam (San Antonio clinic only), chest X-ray, mammogram (women), electrocardiogram and analysis of lipids/lipoproteins, hematology, blood chemistry and urine. A 2-week placebo baseline run-in was followed by randomization of eligible compliant participants to treatment with lovastatin or placebo.
Participants included 6605 men and women with normal to mildly elevated total and LDL-cholesterol and below average HDL-cholesterol defined as: total cholesterol 180-264 mg/dl, LDL-cholesterol 130-190 mg/dl, HDL-cholesterol ≦45 mg/dl for men and ≦47 mg/dl for women and triglycerides ≦400 mg/dl. All lipid/lipoprotein entrance criteria had to be met on average at both four and two weeks prior to randomization (after at least eight weeks of diet therapy). In addition, for both total and LDL-cholesterol, the two eligibility determinations had to be within 15% of each other.
Excluded for clinical evidence of atherosclerotic cardiovascular disease were men and women who had: prior history of myocardial infarction; angina; claudication; cerebrovascular accident; or transient ischemic attack. Also excluded were those aged >73 years or <45 years (men) or <55 years (women) or those with secondary hyperlipoproteinemia, nephrotic syndrome, uncontrolled or insulin-dependent diabetes mellitus or uncontrolled hypertension.

[2] = tested on: patients with hypercholesterolemia and/or CHD; details: coronary and carotid arteries; cited from earlier work
[3] = Secondary Endpoint: Fatal and Nonfatal Coronary Events, lovastatin vs placebo
[4] = first acute major coronary events, baseline HDL-C tertile 34.5-39.5 mg/dl
[5] = first acute major coronary events, baseline HDL-C tertile <34.0 mg/dl
[6] = first acute major coronary events, baseline HDL-C tertile >39.5 mg/dl
[7] = first acute major coronary events, baseline LDL-C tertile 142.0-156.8 mg/dl
[8] = first acute major coronary events, baseline LDL-C tertile <142 mg/dl
[9] = first acute major coronary events, baseline LDL-C tertile >156.9 mg/dl

CC[C@H](C)C(=O)O[C@H]1C[C@@H](C)C=C2C=C[C@H](C)[C@H](CC[C@@H]3C[C@@H](O)CC(=O)O3)[C@H]21 [lovastatin]
Relative Risk (C.I.) ([1]; Primary Endpoint: acute major coronary events, lovastatin 20-40 mg once a day vs placebo, median 5.2 years): 0.63 (0.50, 0.79), | Relative Risk (C.I.) ([1]; Secondary Endpoint: Fatal and Nonfatal Cardiovascular Events, lovastatin vs placebo): 0.75 (0.62, 0.91), | Relative Risk (C.I.) [1, 3]: 0.75 (0.61, 0.92), | Risk Reduction [1, 3]: 25% | Relative Risk (C.I.) ([1]; Secondary Endpoint: Fatal and Nonfatal MI, lovastatin vs placebo): 0.60 (0.43, 0.83), | Relative Risk (C.I.) ([1]; Secondary Endpoint: Revascularizations, lovastatin vs placebo): 0.67 (0.52, 0.85), | Relative Risk (C.I.) ([1]; Secondary Endpoint: Unstable Angina, lovastatin vs placebo): 0.68 (0.48, 0.95), | % change in HDL-C from baseline to the one year point ([1]; baseline HDL-C tertile 34.5-39.5 mg/dl): 6.2% | % change in HDL-C from baseline to the one year point ([1]; baseline HDL-C tertile <34.0 mg/dl): 7.4% | % change in HDL-C from baseline to the one year point ([1]; baseline HDL-C tertile >39.5 mg/dl): 4.3% | % change in LDL-C from baseline to the one year point ([1]; baseline LDL-C tertile 142.0-156.8 mg/dl): −26.0% | % change in LDL-C from baseline to the one year point ([1]; baseline LDL-C tertile <142 mg/dl): −20.1% | % change in LDL-C from baseline to the one year point ([1]; baseline LDL-C tertile >156.9 mg/dl): −28.9% | dependence of risk reduction on baseline LDL-C and HDL-C ([1]; first acute major coronary events by LDL-C and HDL-C tertiles at randomization): independent of baseline LDL-C and HDL-C | Relative Risk (95% C.I.) [1, 4]: 0.57 | Risk Reduction [1, 4]: 43% | Relative Risk (95% C.I.) [1, 5]: 0.55 | Risk Reduction [1, 5]: 45% | Relative Risk (95% C.I.) [1, 6]: 0.85 | Risk Reduction [1, 6]: 15% | Relative Risk (95% C.I.) [1, 7]: 0.64 | Risk Reduction [1, 7]: 36% | Relative Risk (95% C.I.) [1, 8]: 0.66 | Risk Reduction [1, 8]: 34% | Relative Risk (95% C.I.) [1, 9]: 0.59 | Risk Reduction [1, 9]: 41% | progression of atherosclerotic lesions [2]: slow the progression of atherosclerotic lesions

From patent US20020103251A1, “Cholesterol-lowering therapy” (priority 1997, published 2002)
